“And” between values parts separate entries of the source, which are not always exact repeats. Equal entries are not always repeated.
System: N. benthamiana leaves
Settings: in vivo

Substance	sites showing a visible cell death response out of total infiltrated sites
DPIYTPNSGETIDAGAPYTVTW [SGP123-44rec]	10/10 and 30/30
NPDFNPVNKPTPNEKIPAGSTYKIEWTAPA [VdSNP30rec]	1/10 and 3/30
TADFDPIFKPEAWQSVAAGQSFQITWDAPA [FsSNP30rec]	9/10 and 27/30
TAGFDAISVPTNGQVVKVGDVLDITWAPNA [SsSNP30rec]	9/10 and 10/10 and 28/30
TAGFDAISVPTNGQVVQVGDVLDITWAPNS [BcSNP30rec]	10/10 and 30/30
TAGFDAVLTPAKDEVVAAGSSYTITWDYSS [VmSNP30rec]	0/10 and 0/30
TPDFDPIYTPKKDEVVAAGSPLVITWDAPA [CpSNP30rec]	9/10 and 10/10 and 28/30
TPGFHALVKPVRDEVIPAGKPYTLEWQPGG [MoSNP30rec]	1/10 and 3/30
VADFDPVLTPTNWEEVSAGKTLEITWQAKP [FvSNP30rec]	0/10 and 0/30
W44A (FDPIYTPNSGETIDAGAPYTVTA)	0/5 and 0/15
